Where a name gives a salt, the structure may show the parent alone. ± gives the standard deviation of the averaged measurements.
Tested on: HepaRG
Experiment: LDH release cytotoxicity, % of total lysis control; higher = more cytotoxic
Settings: 48 h
Method in brief: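 The CytoTox-ONE kit was used to read LDH in 50 µL spent medium as resorufin fluorescence on a Tecan Safire, with 0.1% Triton X added to total lysis wells. Beforehand, single-lot HepaRG cells on collagen I-coated 96-well plates had been exposed in duplicate for 48 h to eight-point half-log series (top 100 µM) in serum-free induction medium containing 0.5% DMSO. Percent cytotoxicity was normalized against on-plate vehicle and total lysis controls and averaged over duplicates.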

| SMILES | LDH release cytotoxicity (0.03162 µM) [%] | LDH release cytotoxicity (0.1 µM) [%] | LDH release cytotoxicity (0.3162278 µM) [%] | LDH release cytotoxicity (1 µM) [%] | LDH release cytotoxicity (3.16228 µM) [%] | LDH release cytotoxicity (10 µM) [%] | LDH release cytotoxicity (31.6228 µM) [%] | LDH release cytotoxicity (100 µM) [%] | further results |
| --- | --- | --- | --- | --- | --- | --- | --- | --- | --- |
| CCc1cccc(C)c1N(C(=O)CCl)C(C)COC (centres undefined) [Metolachlor] | -2.35 ± 0.41 | -1.88 ± 0.93 | -2.04 ± 0.75 | -1.88 ± 0.4 | -1.33 ± 0.23 | -1.85 ± 1.5 | -1.51 ± 0.46 | -1.21 ± 0.023 | – |
| Cc1c(COC(=O)C2C(C=C(Cl)C(F)(F)F)C2(C)C)cccc1-c1ccccc1 (centres undefined) [Bifenthrin] | -1.61 ± 1.9 | -2.22 ± 0.62 | -2.26 ± 0.28 | -2.12 ± 0.18 | -1.77 ± 0.75 | -1.98 ± 0.032 | -2.13 ± 0.62 | -0.496 ± 0.96 | – |
| O=C(O)C(F)(F)C(F)(F)C(F)(F)C(F)(F)C(F)(F)C(F)(F)F [Perfluoroheptanoic acid] | -2.26 ± 1 | -2.63 ± 0.69 | -3.62 ± 0.96 | -3.63 ± 0.086 | -2.82 ± 0.55 | -2.95 ± 0.085 | -2.44 ± 0.19 | -2.23 ± 0.48 | – |
| O=S1(=O)CCCO1 [1,3-Propane sultone] | -0.997 ± 0.28 | -2.2 ± 0.45 | -1.51 ± 0.54 | -1.38 ± 0.031 | -1.5 ± 0.31 | -1.53 ± 0.35 | -0.817 ± 0.19 | -0.0166 ± 1.5 | – |
| COCC(C)OCC(C)OCC(C)O (centres undefined) [Tripropylene glycol monomethyl ether] | -2.65 ± 0.75 | -2.37 ± 0.59 | -2.65 ± 0.77 | -3.43 ± 0.28 | -2.88 ± 0.31 | -1.77 ± 1 | -1.51 ± 0.6 | 0.876 ± 1.4 | – |
| O=C(OCCCCCOC(=O)c1ccccc1)c1ccccc1 [Pentane-1,5-diyl dibenzoate] | -0.742 ± 0.19 | -0.929 ± 0.18 | -1.73 ± 0.77 | -1.19 ± 0.099 | -0.893 ± 0.47 | -0.935 ± 0.24 | -0.87 ± 0.083 | -0.0778 ± 0.93 | – |
| CCCCOC(=O)CCCCC(=O)OCCCC [Dibutyl adipate] | – | – | – | – | – | – | – | – | LDH release cytotoxicity (0.0317809 µM): -0.761 ± 1%; LDH release cytotoxicity (0.1005 µM): -1.45 ± 0.41%; LDH release cytotoxicity (0.317809 µM): -1.74 ± 0.8%; LDH release cytotoxicity (1.005 µM): -1.12 ± 0.14%; LDH release cytotoxicity (3.17809 µM): -1.24 ± 0.86%; LDH release cytotoxicity (10.05 µM): -0.568 ± 0.45%; LDH release cytotoxicity (31.7809 µM): 0.579 ± 0.27%; LDH release cytotoxicity (100.5 µM): 2.35 ± 1.2% |
| CC12C=CC(=O)C=C1CCC1C2C(=O)CC2(C)C1CCC2(O)C(=O)CO (centres undefined) [Prednisone] | -1.86 ± 0.28 | -1.83 ± 0.41 | -2.31 ± 0.061 | -1.54 ± 0.39 | -1.77 ± 0.042 | -1.84 ± 0.37 | -1.61 ± 0.33 | -0.167 ± 0.094 | – |
| Cc1ccn2nc(S(=O)(=O)Nc3c(F)cccc3F)nc2n1 [Flumetsulam] | -2 ± 0.6 | -0.7 ± 1.5 | -1.43 ± 3 | -1.43 ± 1.5 | -1.84 ± 0.62 | 0.538 ± 0.94 | 0.194 ± 2 | 1.86 ± 1.8 | – |
| COP(=S)(OC)Oc1ccc([N+](=O)[O-])c(C)c1 [Fenitrothion] | -1.98 ± 1.1 | -2.13 ± 1.2 | -0.603 ± 0.67 | -1.11 ± 0.74 | -0.939 ± 0.39 | -0.576 ± 0.69 | -0.104 ± 0.3 | 0.45 ± 0.39 | – |
| c1cc(-c2ccncc2)ccn1 [4,4'-Bipyridine] | -0.85 ± 0.14 | -1.15 ± 0.96 | -0.941 ± 0.12 | -1.18 ± 0.065 | -1.05 ± 0.039 | 4.58 ± 0.24 | 24 ± 0.4 | 18 ± 1.7 | – |
| CN(C)C(=O)NC1(c2ccccc2)CCN(CCCC2(c3ccc(Cl)c(Cl)c3)CCCN(C(=O)c3ccccc3)C2)CC1 (centres undefined) | – | – | – | – | – | – | – | – | LDH release cytotoxicity (0.0079057 µM): 0.117 ± 0.015%; LDH release cytotoxicity (0.025 µM): -1.98 ± 0.18%; LDH release cytotoxicity (0.0790569 µM): -1.74 ± 0.42%; LDH release cytotoxicity (0.25 µM): -1.65 ± 0.21%; LDH release cytotoxicity (0.790569 µM): -1.74 ± 0.064%; LDH release cytotoxicity (2.5 µM): -1.23 ± 1%; LDH release cytotoxicity (7.90569 µM): -0.502 ± 1%; LDH release cytotoxicity (25 µM): 77 ± 4.5% |
| CC1(C)CCC(=Cc2ccc(Cl)cc2)C1(O)Cn1cncn1 (centres undefined) [Triticonazole] | – | – | – | – | – | – | – | – | LDH release cytotoxicity (0.0314647 µM): -0.271 ± 1.9%; LDH release cytotoxicity (0.0995 µM): -0.849 ± 0.067%; LDH release cytotoxicity (0.3146466 µM): -0.205 ± 0.74%; LDH release cytotoxicity (0.995 µM): -1.22 ± 0.81%; LDH release cytotoxicity (3.14647 µM): -0.364 ± 0.038%; LDH release cytotoxicity (9.95 µM): 0.229 ± 0.84%; LDH release cytotoxicity (31.4647 µM): 1.76 ± 0.041%; LDH release cytotoxicity (99.5 µM): 5.55 ± 0.43% |
| CNS(=O)(=O)c1cc(C(=O)N2CCC(CCN3C4CCC3CC(n3c(C)nc5ccccc53)C4)(c3cccc(F)c3)CC2)c(Cl)cc1F (centres undefined) | -1.92 ± 0.56 | -0.773 ± 0.51 | -1.36 ± 0.34 | -1.37 ± 0.31 | -1.08 ± 0.021 | -0.27 ± 0.57 | 10.5 ± 0.32 | 23.1 ± 0.81 | – |
| O=C(O)c1ccccc1 [Sodium benzoate] | – | -2.13 ± 1.3 | – | -3.15 ± 0.39 | -2.88 ± 0.63 | -2.37 ± 0.27 | -1.36 ± 0.096 | -0.292 ± 1.2 | LDH release cytotoxicity (0.031623 µM): 0.689 ± 0.63%; LDH release cytotoxicity (0.316228 µM): -2.23 ± 0.31% |
| CCCCCCCC=O [Octanal] | -2.27 ± 0.13 | -2.49 ± 0.035 | -2.18 ± 1.1 | -1.59 ± 0.17 | -1.99 ± 0.053 | -1.65 ± 0.19 | -0.367 ± 0.076 | -0.293 ± 0.53 | – |
| CCC1CC(N(Cc2cc(C(F)(F)F)cc(C(F)(F)F)c2)C(C)=O)c2cc(C(F)(F)F)ccc2N1C(=O)OC(C)C (centres undefined) | -0.374 ± 0.25 | 0.141 ± 0.44 | -0.658 ± 0.2 | -0.248 ± 0.3 | -1.3 ± 0.09 | 0.748 ± 0.45 | 3.11 ± 0.63 | 7.54 ± 0.85 | – |
| CSC(=O)c1cccc2nnsc12 [Acibenzolar-S-methyl] | -0.11 ± 0.5 | -0.574 ± 0.66 | -0.682 ± 0.56 | -0.324 ± 0.3 | -0.302 ± 0.16 | -0.414 ± 0.83 | 0.737 ± 0.21 | 1.4 ± 0.15 | – |
| CCCCCCCCCCCCc1ccc(S(=O)(=O)O)cc1 [Dodecylbenzenesulfonic acid] | – | -1.4 ± 1.3 | – | -3.27 ± 1.6 | -2.52 ± 0.99 | -2.56 ± 0.4 | -1.64 ± 0.34 | 65.65 ± 0.34 | LDH release cytotoxicity (0.031623 µM): -1.05 ± 0.58%; LDH release cytotoxicity (0.316228 µM): -2.17 ± 0.79% |
| Oc1ccc(O)cc1 [Hydroquinone] | 0.852 ± 2.2 | -0.606 ± 1 | -1.09 ± 0.16 | -0.745 ± 0.076 | -0.483 ± 0.15 | -0.0561 ± 0.24 | -0.947 ± 0.53 | -1.615 ± 0.013 | – |
| CC[C@H](C)[C@@H](C(=O)O)n1sc2ccccc2c1=O | -0.834 ± 0.66 | -1.623 ± 0.0095 | -0.553 ± 0.09 | -1.34 ± 0.35 | -1.12 ± 0.47 | -0.759 ± 0.13 | -1.34 ± 0.25 | 0.0312 ± 0.63 | – |
| Nc1c(Cl)c(F)nc(OCC(=O)O)c1Cl [Fluroxypyr] | -0.285 ± 0.61 | -1.46 ± 1.1 | -1.77 ± 1 | -1.29 ± 0.69 | -1.07 ± 0.26 | -0.274 ± 0.24 | 0.368 ± 0.6 | 1.75 ± 0.91 | – |
| Oc1cc2ccccc2c2ccccc12 [9-Phenanthrol] | -1.97 ± 0.66 | -2.29 ± 0.44 | -2.11 ± 0.28 | -2.1 ± 0.98 | -2.21 ± 0.069 | -2.2 ± 0.41 | -2.94 ± 0.08 | 0.0725 ± 0.99 | – |
| O=C(NC(=O)c1cc(F)c(F)cc1Cl)Nc1cc(F)ccc1N1CCC(C(=O)O)CC1 [AVE2865] | – | – | – | – | – | – | – | – | LDH release cytotoxicity (0.01581 µM): 0.296 ± 0.54%; LDH release cytotoxicity (0.05 µM): -1.08 ± 0.4%; LDH release cytotoxicity (0.1581139 µM): -1.31 ± 0.41%; LDH release cytotoxicity (0.5 µM): -0.965 ± 0.11%; LDH release cytotoxicity (1.5811388 µM): -1.15 ± 0.067%; LDH release cytotoxicity (5 µM): -0.168 ± 0.023%; LDH release cytotoxicity (15.8114 µM): 0.386 ± 0.34%; LDH release cytotoxicity (50 µM): 0.68 ± 0.52% |
| CC(C)(C)C(O)C(=Cc1ccc(Cl)cc1Cl)n1cncn1 (centres undefined) [Diniconazole] | -0.57 ± 1.1 | -1.77 ± 1.1 | -0.96 ± 0.019 | -0.38 ± 0.69 | 0.433 ± 0.38 | -0.346 ± 1.4 | 0.723 ± 1.1 | 1.41 ± 0.97 | – |
| Cc1nc(-c2ccccn2)ncc1C(=O)Nn1cc(C)c2cc(F)ccc21 | – | – | – | – | – | – | – | – | LDH release cytotoxicity (0.0295673 µM): -0.89 ± 0.73%; LDH release cytotoxicity (0.0935 µM): -1.26 ± 0.34%; LDH release cytotoxicity (0.295673 µM): -0.0753 ± 0.68%; LDH release cytotoxicity (0.935 µM): -1.71 ± 0.6%; LDH release cytotoxicity (2.95673 µM): -2.8 ± 0.042%; LDH release cytotoxicity (9.35 µM): -2.48 ± 0.043%; LDH release cytotoxicity (29.5673 µM): -2.73 ± 0.47%; LDH release cytotoxicity (93.5 µM): -1.5 ± 0.84% |
| Cc1ccccc1N [2-Methylaniline] | -1.2 ± 0.49 | -0.736 ± 0.52 | -0.698 ± 0.12 | -0.759 ± 0.47 | -1.37 ± 0.23 | -0.264 ± 0.12 | -0.213 ± 0.19 | 0.285 ± 0.61 | – |
| CN(C)CCOC(c1ccccc1)c1ccccc1 [Diphenhydramine hydrochloride] | -0.0757 ± 0.11 | -1.04 ± 0.17 | -0.977 ± 0.34 | -1.8 ± 1.1 | -1.62 ± 0.031 | -0.793 ± 0.26 | -0.772 ± 0.23 | 1.1 ± 0.12 | – |

Source: the supplement of paper PMC7840683
